# Tests used:
# [1] = biological target: T1, human 5-HT6 receptor stabily transfected into HELA cells (Homo sapiens, UniProt P50406); test: 5-HT6 agonist activity using cAMP accumulation; format: cell-based
# T1 construct: expressed in transfected cells; host or cells: HeLa cells, stably transfected
# Method: Upon initiation of the assay, the media from cell maintenance is aspirated and cells are preincubated at 37° C. for 15 mins. in KREBS buffer. Following this primary incubation, the buffer is aspirated and an additional incubation is performed at 37° C. for 5 mins. in KREBS buffer containing 500 uM IBMX (3-isobutyl-1-methylxanthine). […] The assay is terminated by the addition of 0.5M perchloric acid. […] Data are analyzed graphically with GraphPad Prism (GraphPad Software, San Diego, Calif.).
# [2] = biological target: T2, human cloned 5-HT6 receptors (Homo sapiens, UniProt P50406); test: 5-HT6 binding affinity, [3H]-LSD displacement in membranes of Hela cells
# T2 construct: expressed in transfected cells; host or cells: HeLa cells (membrane preparation)
# T2 sequence (P50406 whole entry): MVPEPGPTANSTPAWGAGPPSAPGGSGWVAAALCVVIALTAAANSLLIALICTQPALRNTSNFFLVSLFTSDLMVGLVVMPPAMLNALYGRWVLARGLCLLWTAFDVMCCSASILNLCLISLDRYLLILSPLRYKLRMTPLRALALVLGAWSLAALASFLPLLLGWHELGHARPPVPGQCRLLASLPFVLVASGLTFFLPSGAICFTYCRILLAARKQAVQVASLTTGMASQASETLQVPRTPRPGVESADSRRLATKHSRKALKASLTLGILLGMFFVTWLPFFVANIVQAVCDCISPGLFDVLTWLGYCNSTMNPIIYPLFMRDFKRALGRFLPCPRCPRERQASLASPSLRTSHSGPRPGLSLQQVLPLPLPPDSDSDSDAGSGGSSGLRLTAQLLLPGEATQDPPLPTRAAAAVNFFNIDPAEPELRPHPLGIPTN
# Method: The affinity of test compounds for the serotonin 5-HT6 receptor is evaluated in the following manner. Cultured Hela cells expressing human cloned 5-HT6 receptors are harvested and centrifuged at low speed (1,000×g) for 10.0 min to remove the culture media. The harvested cells are suspended in half volume of fresh physiological phosphate buffered saline solution and recentrifuged at the same speed. This operation is repeated. The collected cells are then homogenized in ten volumes of 50 mM Tris.HCl (pH 7.4) and 0.5 mM EDTA. The homogenate is centrifuged at 40,000×g for 30.0 min and the precipitate is collected. The obtained pellet is resuspended in 10 volumes of Tris.HCl buffer and recentrifuged at the same speed. The final pellet is suspended in a small volume of Tris.HCl buffer and the tissue protein content is determined in aliquots of 10-25 μl volumes. […] The volume of the suspended cell membranes is adjusted to give a tissue protein concentration of 1.0 mg/ml of suspension. […]
# The bound complex caught on the filter disk is allowed to air dry and the radioactivity is measured in a Packard TopCount® equipped with six photomultiplier detectors, after the addition of 40.0 μl Microscint®-20 scintillant to each shallow well.
# Binding in the presence of varying concentrations of test compound is expressed as a percentage of specific binding in the absence of test compound. […]
# [3] = system: neuron cultures from E16 rat embryos; conditions: 72 h
# Method: In this evaluation neuron cultures are prepared from E16 rat embryos. […] After a 72 h period, neuronal survival is determined by a neurofilament ELISA.
# The data are expressed as total neurofilament content.
# [4] = system: brain derived neurotrophic factor (BDNF) protein in cortical neuron cultures; test: BDNF protein levels in cultured cortical neurons, sandwich ELISA; format: cell-based, rat; conditions: 72 h in culture
# Method: In this evaluation cortical neuron cultures are prepared from E16 rat embryos and plated on pre-coated 10 cm Petri dishes. […] Levels of brain derived neurotrophic factor (BDNF) protein were measured after a 72 h period by lysing the cells and using a BDNF sandwich ELISA. More specifically, ELISA plates were coated with an anti-BDNF monoclonal antibody. Nonspecific binding was blocked and 50 μg of sample protein was added. A second anti-BDNF antibody was added and incubated. An anti-IgY antibody conjugated with horseradish peroxidase was added and incubated. A TMB solution was added and the colorimetric reaction was measured in a plate reader (absorbance of 450 nm). BDNF levels are quantified after 72 h in culture.
# [5] = system: cortical neuron cultures from E16 rat embryos; conditions: 72 h
# Method: In this evaluation cortical neuron cultures are prepared from E16 rat embryos. […] Neurite outgrowth is determined after a 72 h period by staining cells with a tubulin antibody (TUJ-1) and measuring neurite length with the Cellomics ArrayScan, using the Enhanced Neurite Outgrowth (ENO) algorithm. The data are expressed as total neurite length.
# [6] = system: cerebellar granule neurons; test: Oxygen glucose deprivation (OGD) in cerebellar granule neurons, LDH release; format: cell-based, rat; conditions: 4 h OGD, 24 h recovery
# Method: (§1) Cerebella isolated from P7 rat pup brains are cut into 1 mm pieces and transferred to a tube containing 0.3 mg/ml trypsin in HBSS. Following enzymatic digestion, the tissue is mechanically triturated. The supernatant is collected and centrifuged at 1200 rpm for 10 minutes. The resultant pellet is resuspended in complete media (Neurobasal, […], 0.5 mM L-glutamine, 100 U/ml penicillin, 100 μg/ml streptomycin, 10% FBS) and plated at a density of 0.5×10^6 cells/well in 24-well plates. After 24 h, media is exchanged with complete serum-free medial (Neurobasal, […], 0.5 mM L-glutamine, 100 U/ml penicillin, 100 μg/ml streptomycin, B-27 supplement).
# This is a well characterized model of ischemia-like neuronal injury involving glutamate-induced excitotoxicity (A. Kaasik, et al, Neuroscience (2001) 102, pp427-432). Cultures are maintained for 14 days in vitro prior to experimentation. […] Following the 4 h OGD, deoxygenated buffer is exchanged with complete media. […] At the end of the 24-h period, cell death is determined by measuring lactate dehydrogenase (LDH) released into the media and is expressed as a percent of cell death. The results are shown in FIG. 3 and are presented as means±SD from 5 experiments. Sham bar represents results obtained with cultures subjected to manipulations and changes of culture media without OGD or drug treatment.
# [7] = system: cerebellar granule neurons; test: Potassium withdrawal-induced apoptosis in cerebellar granule neurons, DNA fragmentation ELISA; format: cell-based, rat; conditions: 5 mM K+, 24 h
# Method: as §1
# Potassium withdrawal, i.e. replacement of […] in the CGN culture medium is a well established model of neuronal cell death by apoptosis (T. M. Miller and E. M. Johnson, Journal of Neuroscience, (1996) 16(23), pp7487-7495). Cultures are maintained for 7 days prior to experimentation. Complete media containing 25 mM K^+ is exchanged with complete media containing 5 mM K^+. […] After 24 h, apoptotic cell death is determined by measuring DNA fragmentation via ELISA. Apoptotic cell death is expressed as % apoptosis.
# T1 sequence (P50406 whole entry): as above
smiles,measurement,setting,value
"COc1ccc(OC)c(S(=O)(=O)c2cn(CCN)c3ncccc23)c1 [Test Compound A, (2-{3-[(2,5-dimethoxyphenyl)sulfonyl]-1H-pyrrolo[2,3-b]pyridin-1-yl}ethyl)amine]",Emax,[1],95%
same,Ki,[2],3.6 nM
"CN(C)CCn1cc(S(=O)(=O)c2cccc(F)c2)c2cccnc21 [Test Compound B, N-(2-{3-[(3-fluorophenyl)sulfonyl]-1H-pyrrolo[2,3-b]pyridin-1-yl}ethyl)-N,N-dimethylamine]",neurofilament content compared to vehicle treated controls,[3],increases the neurofilament content
same,BDNF protein levels compared to vehicle treated control,[4],significantly increased BDNF protein levels
same,total neurite length compared to vehicle treated controls,[5],increased total neurite length
NCCc1cn(S(=O)(=O)c2c(Cl)nc3sccn23)c2ccccc12 [Test Compound C],reduction of neuronal death,[6]; 1 μM,50%
same,effect on OGD-induced neuronal cell death,[6]; 1 h pretreatment,dose-dependent reduction of neuronal cell death
same,lowest concentration providing significant protection against OGD-induced cell death,[6]; LDH release,10 nM
same,reduction of apoptotic cell death,[7]; 0.3 μM,50%
same,protection from apoptosis,[7]; 3.0 μM,almost total protection from apoptosis
same,effect on amount of fragmented DNA (measure of apoptosis),[7],"significantly, and dose dependently, attenuated"

# From patent US20060128744A1, “Use of 5-HT6 agonist for the treatment and prevention of neurodegenerative disorders” (Wyeth, priority 2004, published 2006)
